Results: patent US11433068B2, “Treatment of cancers having alterations within the SWI/SNF chromatin remodeling complex” (THE GENERAL HOSPITAL CORPORATION, priority 2016, dated 2022)

Key:
[1] = test system: ARID2-deficient cell lines; assay: Combination therapy heatmaps, cell viability, isogenically matched engineered melanoma lines (FIG. 8); type: cell-based; settings: ARID2-deficient vs matched lines
From the text: FIG. 8 summarizes the combination therapy on isogenically matched engineered ARID-deficient melanoma cell lines. Heatmaps showing cell viability after treatment with the G9a inhibitor BIX-01294 in combination with other small molecule inhibitors (bromodomain inhibitor JQ1 and BRAF inhibitor PLX).

[2] = test system: ARID2-deficient cells; assay: Selective susceptibility of ARID2-knockdown melanoma lines to G9a inhibitors (FIG. 3); type: cell-based; settings: ARID2-knockdown of two different melanoma lines
[3] = test system: melanoma cell and melanocyte; assay: Viability by cell-titer Glo assay (FIGS. 14A, 14B); type: cell-based; settings: varying amounts; melanoma cells and melanocytes
Method: FIGS. 14A and 14B show melanoma cell and melanocyte are sensitive to G9a inhibitors. Indicated cell types were treated with varying amounts of (FIG. 14A) UNC0638 or (FIG. 14B) BIX01294 and viability was measured by cell-titer Glo assay.

[4] = test system: melanoma cell lines (n=22); assay: LD50 of melanoma cell lines versus ARID2 mutational status (FIGS. 5A, 5B); type: cell-based; settings: 22 melanoma cell lines; ARID2 mutant vs other lines
From the text: LD50 value of each melanoma cell line plotted for the two G9a inhibitors UNC0638 and BIX-01294. (n=22). ARID2 mutant cell lines indicated in closed circles.

[5] = test system: H3K9; assay: Histone western blot of cells treated with G9a inhibitors (FIGS. 6A, 6B); type: cell-based; settings: UACC257 cell line
From the text: (§1) The G9a and EZH2 methyltransferases are known to target H3K9 and H3K27, respectively.

[6] = test system: UACC257 human melanoma cells with ARID2 deficiency; assay: Dose response of melanoma cells to the G9a inhibitor (FIG. 2); type: cell-based; settings: UACC257 shARID2 knockdown vs isogenically matched control (shLuc) cells
Method: ARID2 deficiency is simulated the cells using an RNAi shARID2 to knockdown expression of ARID2. For control, the same cell lines are treated with a control RNAi shLuc instead of shARID2.

[7] = test system: ARID2-deficient melanomas UACC62 cells; assay: Quantification of cell number using crystal violet staining (FIGS. 4A, 4B); type: cell-based
[8] = test system: ARID-deficient LOX-IMVI cell line; assay: Combination therapy heatmaps, cell viability, endogenous ARID-deficient melanoma lines (FIG. 9); type: cell-based; settings: G9a inhibitor in combination with HDAC inhibitor SAHA; LOX-IMVI compared to ARID wildtype A375
From the text: FIG. 9 summarizes the combination therapy on endogenous ARID-deficient melanoma cell lines.

[9] = test system: H3K27; assay: Histone western blot of cells treated with EZH2 inhibitors (FIGS. 6A, 6B); type: cell-based; settings: UACC257 cell line
From the text: as §1

[10] = test system: G9a-amplified melanoma cell line, K029; assay: Tumor growth of subcutaneously inoculated K029 cells in SCID mice (FIG. 16); type: in vivo; settings: K029 subcutaneous in SCID mice; 2.5 mg/kg daily ip from 8 days after inoculation
Method: G9a-amplified melanoma cell line, K029, was subcutaneously inoculated on SCID mice (5×10^6 cells/[…] PBS). Vehicle (10% DMSO/PBS) or UNC0642 (2.5 mg/kg) was daily administrated by ip injection 8 days after K029 inoculation.

[11] = BIX-01294 in combination with bromodomain inhibitor JQ1

Row | SMILES | drug synergy (cell viability) [1, 11] | sensitivity of ARID2-knockdown cells to G9a inhibitors [2] | viability (cell-titer Glo) [3] | sensitivity (LD50) versus ARID2 mutation [4] | methylation marks at H3K9 (histone western blot) [5] | cell number (crystal violet staining) [7] | drug synergy (cell viability) [8] | also measured
1 | Cc1sc2c(c1C)C(c1ccc(Cl)cc1)=N[C@@H](CC(=O)OC(C)(C)C)c1nnc(C)n1-2 [JQ1] | selectively enhanced |  |  |  |  |  |  | 
2 | COc1cc2c(NC3CCN(C(C)C)CC3)nc(C3CCCCC3)nc2cc1OCCCN1CCCC1 [UNC0638] |  | sensitive | sensitive | ARID2 mutation predicts the sensitivity | selective and specific decrease in the methylation marks | selective vulnerability | selectively enhanced | susceptibility to the G9a inhibitor (dose response) [6]: more susceptible
3 | CC[C@H](C)n1cc(C)c2c(C(=O)NCc3c(C)cc(C)[nH]c3=O)cc(-c3ccc(N4CCNCC4)nc3)cc21 [GSK126] |  |  |  |  |  |  |  | methylation marks at H3K27 (histone western blot) [9]: selective and specific decrease in the methylation marks
4 | COc1cc2nc(N3CCCN(C)CC3)nc(NC3CCN(Cc4ccccc4)CC3)c2cc1OC [BIX-01294] | selectively enhanced | sensitive | sensitive | ARID2 mutation predicts the sensitivity | selective and specific decrease in the methylation marks | selective vulnerability | selectively enhanced | drug synergy (cell viability) ([1]; BIX-01294 in combination with BRAF inhibitor PLX): selectively enhanced
5 | O=C(CCCCCCC(=O)Nc1ccccc1)NO [SAHA, suberoylanilide hydroxamic acid] |  |  |  |  |  |  | selectively enhanced | 
6 | COc1cc2c(NC3CCN(C(C)C)CC3)nc(N3CCC(F)(F)CC3)nc2cc1OCCCN1CCCC1 [UNC0642] |  |  |  |  |  |  |  | tumor growth [10]: effectively suppress tumor growth
